This is an account of results in patent US20250170101A1, “MONOACYLGLYCEROL LIPASE INHIBITORS AND USE THEREOF FOR THE TREATMENT AND MANAGEMENT OF PAIN AND RELATED CONDITIONS” (Psy Therapeutics, Inc., priority 2021, published 2025).

Series [1] deals with T1, MAGL enzyme (Homo sapiens, UniProt Q99685).
T1 sequence (Q99685 1-303): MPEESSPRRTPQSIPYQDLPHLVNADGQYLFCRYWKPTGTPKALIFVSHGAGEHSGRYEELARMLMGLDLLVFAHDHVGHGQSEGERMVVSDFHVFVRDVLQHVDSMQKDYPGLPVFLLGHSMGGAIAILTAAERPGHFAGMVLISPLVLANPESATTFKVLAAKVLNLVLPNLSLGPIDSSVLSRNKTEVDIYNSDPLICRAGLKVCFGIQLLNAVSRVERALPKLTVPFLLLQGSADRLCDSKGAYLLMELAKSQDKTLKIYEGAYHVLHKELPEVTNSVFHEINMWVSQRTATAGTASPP
Kind of series: MAGL reversible inhibition assay (washout), Example 22. It counts as biochemical. The arrangement: % MAGL activity returning after washout: concentration or dose not given beside the values. To be noted: for degree to which MAGL enzymatic activity returned following washout of test compounds: pre-washout compound concentration 1 μM; for % MAGL activity returning after washout: relative to control (no inhibitor before washout), immediately following 30 minute washout. The procedure:
The reversible mechanism of MAGL inhibition of a test compound of Formula (I) can be determined. Flag-tagged MAGL enzyme will be immobilized on anti-Flag beads. Immobilized enzyme will be incubated+/−inhibitor at a dose that produces complete inhibition. Colorimetric substrate (4-NPA) will be added and the reaction monitored on a plate reader for 30 minutes to verify complete inhibition. Immobilized enzyme will then be washed thoroughly to remove the inhibitor, and fresh substrate will be added. The reaction will be monitored for an additional 30 minutes; returning enzymatic activity will indicate reversibility of inhibition. […]
For some test compounds, % activity returning after washout may be less than 100%/if complete compound unbinding takes longer than 30 minutes.

Series [2] concerns the target T2, human recombinant FAAH (Homo sapiens, UniProt O00519).
T2 construct: purchased Cayman kit Item No. 10005196; FAAH enzyme 700302
T2 sequence (O00519 1-579): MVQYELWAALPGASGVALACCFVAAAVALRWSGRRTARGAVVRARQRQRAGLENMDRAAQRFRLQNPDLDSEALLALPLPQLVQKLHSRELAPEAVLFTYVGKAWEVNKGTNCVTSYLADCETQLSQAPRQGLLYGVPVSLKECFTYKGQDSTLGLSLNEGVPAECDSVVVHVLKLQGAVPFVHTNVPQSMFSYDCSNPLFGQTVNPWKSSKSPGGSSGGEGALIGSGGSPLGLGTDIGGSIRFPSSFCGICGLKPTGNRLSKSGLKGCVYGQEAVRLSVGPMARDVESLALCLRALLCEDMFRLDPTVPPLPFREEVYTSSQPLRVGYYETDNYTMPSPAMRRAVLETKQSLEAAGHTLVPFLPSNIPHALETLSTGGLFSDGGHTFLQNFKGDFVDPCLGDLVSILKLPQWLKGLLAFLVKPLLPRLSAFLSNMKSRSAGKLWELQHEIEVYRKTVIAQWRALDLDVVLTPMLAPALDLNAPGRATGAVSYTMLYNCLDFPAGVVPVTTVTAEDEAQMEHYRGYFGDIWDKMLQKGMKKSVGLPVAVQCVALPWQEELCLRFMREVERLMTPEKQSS
Kind of series: FAAH counter screen (Cayman FAAH Inhibitor Screening Assay Kit), Example 21. Format: biochemical. The procedure:
Comparative compound potency at FAAH can be obtained with the following assay.
MAGL inhibitor compounds were also counter-screened for FAAH inhibition potency using the following assay. Assessment of FAAH inhibition was performed using Fatty Acid Amide Hydrolase Inhibitor Screening Assay Kit (Cayman Item No. 10005196) following manufacture's instruction with some modifications. The kit utilizes human recombinant FAAH and the fluorescent substrate, AMC Arachidonoyl amide (AAMCA). 5 μL of assay buffer (125 mM Tris, pH 9.0, 1 mM EDTA, i.e. ethylenediaminetetraacetic acid) was added to a 384-well black plate (Corning, 3573). Test compounds and control inhibitor JZL-195 (Cayman Chemical, 13668) were tested in 10-concentration IC50 mode with 3-fold serial dilution at a starting concentration of 100 μM and 10 μM, respectively. 300 nL or 30 nL of test compounds were delivered into a 384-well black plate (Corning, 3573) using a Labcyte Echo, followed by addition of 15 μL of FAAH enzyme (Cayman, 700302) in assay buffer. After a 5-minute pre-incubation at room temperature, 10 μL of AAMCA was added in assay buffer to start the reaction. Final concentration of FAAH enzyme is not specified and AAMCA substrate was used at the 20 uM. After these dilutions, the final concentration of the test compounds ranged from 100 μM to 5.08 nM or 10 μM down to 0.508 nM. The reaction was allowed to progress for 60 minutes, while the plate was read on an Envision plate reader at an Ex/Em of 350/460 nm with readings every minute. The data was analyzed in Microsoft Excel, using the slope between 30 and 59 minutes. The average of the no-enzyme wells (background) was subtracted from the data. The background-subtracted slope data was converted to % activity using the average of wells with enzyme and DMSO vehicle. IC50 values were calculated using GraphPad software (Sigmoidal dose response, variable slope equation).
Compounds listed in Table D2 were tested in the FAAH Counterscreen of Example 21
A general note: A counterscreen serves to expose hits that act by an unwanted route or on another target.

The subject of series [3] is Acute Post-Operative Pain (Brennan) mice model. Briefly: Acute Post-Operative Pain (Brennan) mice model, Example 26. To be noted: 40 mg/kg, IP. Format: in vivo, Mus Musculus C57BL/6. The source says:
The aim of this experiment was to evaluate effect of the test compounds Compound 74 and JZL-184 in Acute Post-Operative Pain (Brennan) mice model. • Mouse model: Mus Musculus & C57BL/6, male, 6-8 weeks • End points: mechanical allodynia and brain 2-AG (optional)
(§1) • Animals was anaesthetized under Isoflorane anesthesia. • Using aseptic conditions, prepared the plantar aspect of left hind paw with a 10% povidone-iodine solution and place the paw through a hole in a sterile cloth drape. Made a 0.5-cm longitudinal incision through skin and fascia of the paw with a no. 11 scalpel blade, beginning 0.2 cm from the proximal edge of the heel and extending toward the digits. • Elevated the underlying muscle with small curved forceps and incised longitudinally with the scalpel blade, keeping the muscle origin and insertion intact. • After homeostasis with gentle pressure, apposed the skin with 5-0 slik sutures. Cover the wound site.

In series [4] the test system is Post-Operative Pain (Brennan) mouse model. Briefly: Chronic treatment in Post-Operative Pain (Brennan) mouse model, Example 27. To be noted: 40 mg/kg, IP, single dose. It counts as in vivo, Mus Musculus C57BL/6.
Description: The aim of this experiment was to evaluate effect of the test compounds Compound 74 and JZL-184 in after Chronic treatment in a Post-Operative Pain (Brennan) mouse model. • Mouse model: Mus Musculus & C57BL/6, male, 6-8 weeks • End points: mechanical allodynia and body weight
as §1

Where [5] appears, read: Method A: starting concentration of 100 μM.

Structures are written as SMILES.

As usually defined, the IC50 is the concentration needed to halve the response being measured. For `O=C(c1cc(O)ccc1F)N1CC2(CC(n3cc(C4CC4)c(-c4ccccc4F)n3)C2)C1` [Compound 493], in series [1], the “degree to which MAGL enzymatic activity returned following washout of test compounds” value turned out to be 47 and the “% MAGL activity returning after washout” value was below 50%. In addition, the IC50 in series [2] (Method B: starting concentration of 10 μM) is above 10 µM.
`O=C(Oc1ccc([N+](=O)[O-])cc1)N1CCC(C(O)(c2ccc3c(c2)OCO3)c2ccc3c(c2)OCO3)CC1` [JZL-184, reference compound]: in series [1], the “degree to which MAGL enzymatic activity returned following washout of test compounds” value is “complete lack of return of MAGL enzymatic activity” and the “% MAGL activity returning after washout” value was below 1%. In addition, in series [3] (at 30, 60 & 90 min), the “mechanical allodynia (Threshold, g) vs Vehicle control” value is reported as “significant decrease in mechanical allodynia”. Besides, the Clinical observation entry in series [3] (post IP administration) is “mild hypolocomotion”. The “mechanical allodynia (Threshold, g) vs Vehicle control” value in series [4] is “significant decrease in mechanical allodynia”.
`Cc1cc(C2CC3(C2)CN(C(=O)c2c(F)ccc(O)c2F)C3)n(-c2ccccc2C)n1` [Compound 127, (2,6-difluoro-3-hydroxyphenyl)(6-(3-methyl-1-(o-tolyl)-1H-pyrazol-5-yl)-2-azaspiro[3.3]heptan-2-yl)methanone]: in series [2] (setting [5]), the IC50 is above 10 µM.
For `Cc1cc(C2CC3(C2)CN(C(=O)c2cccc(O)c2)C3)n(-c2ccccc2C)n1` [Compound 125, (3-hydroxyphenyl)(6-(3-methyl-1-(o-tolyl)-1H-pyrazol-5-y1)-2-azaspiro[3.3]heptan-2-yl)methanone], the IC50 in series [2] (setting [5]) is above 10 µM.
